Here are results for 17 compounds from ChEMBL document CHEMBL5532700, “Inhibition of bacterial RNA polymerase function and protein-protein interactions: a promising approach for next-generation antibacterial therapeutics” (RSC Med Chem, 2024).

≈ marks a conversion by molar mass, not a printed value.

Test [1] can be described thus: Inhibition of Escherichia coli RNA polymerase/sigma factor 70 (unknown origin) protein-protein interaction incubated for 30 mins by ELISA.
The test system of test [2] is Staphylococcus aureus. Nature of the test: Antibacterial activity against methicillin-resistant Staphylococcus aureus. The format is functional.
Test [3] has as its system Staphylococcus aureus. The test can be described thus: Antibacterial activity against Staphylococcus aureus. The format is functional.
Test [4] deals with Staphylococcus aureus. Nature of the test: Antibacterial activity against vancomycin-resistant Staphylococcus aureus. It is filed as functional.
A short description of test [5]: Inhibition of ribo(C)10 stimulated Escherichia coli AR120 Rho ATPase activity preincubated for 2 mins in presence of ribo(C)10 followed by ATP addition and measured for 90 sec by [gamma-32P]ATP based liquid scintillation counting method.
Test [6] can be described thus: Inhibition of ribo(C)10 stimulated Escherichia coli AR120 Rho ATPase activity preincubated for 2 mins in absence of ribo(C)10 followed by ATP addition and measured for 90 sec by [gamma-32P]ATP based liquid scintillation counting method.
Test [7] is described as follows: Inhibition of Bacillus subtilis N-terminal SmBiT NanoLuc/C-terminal LgBiT NanoLuc fused full-length SigA tagged RNA polymerase beta subunit CH-domain (220 to 315 residues)/sigma factor (unknown origin) protein-protein interaction by split luciferase assay.
Test [8] concerns Streptococcus pneumoniae. Nature of the test: Antibacterial activity against Streptococcus pneumoniae assessed as reduction in bacterial growth incubated for 16 to 20 hrs by broth microdilution method. As to conditions: time 16-20 hrs. The format is functional.
The subject of test [9] is Bacteria. The test can be described thus: Inhibition of bacterial RNA polymerase holoenzyme formation assessed as inhibition of interaction between beta subunit CH domain and sigma factor at 500 uM relative to control.
The test system of test [10] is Escherichia coli. Nature of the test: Antibacterial activity against Escherichia coli assessed as inhibition of bacterial growth at 200 uM incubated for 10 sec under shaking condition relative to control. It is filed as functional. As to conditions: 10 s.
The test system of test [11] is Bacillus subtilis. The test can be described thus: Antibacterial activity against Bacillus subtilis assessed as inhibition of bacterial growth at 200 uM incubated for 10 sec under shaking condition relative to control. The format is functional. The following applies: 10 s.
In test [12] the test system is Neisseria gonorrhoeae. The test can be described thus: Antibacterial activity against Neisseria gonorrhoeae. It is filed as functional.
Test [13] concerns Moraxella catarrhalis. The test can be described thus: Antibacterial activity against Moraxella catarrhalis. It is filed as functional.
Test [14] is described as follows: Inhibition of poly(C) dependent Escherichia coli DW319 Rho ATPase activity.
Test [15] can be described thus: Inhibition of NusB-NusE (unknown origin) protein protein interaction. Also on record: species or system Bacteria.
The test system of test [16] is Staphylococcus aureus. Nature of the test: Antibacterial activity against community-acquired methicillin-resistant Staphylococcus aureus USA300 measured after 18 hrs. The format is functional.
In test [17] the test system is Bacillus subtilis. The test can be described thus: Antibacterial activity against Bacillus subtilis EU168 measured after 18 hrs. It is filed as functional.
Test [18] in a line: Binding affinity to NusB (unknown origin) assessed as dissociation constant. Set-up: species or system Bacteria.
Test [19] has as its system Bacillus anthracis. Nature of the test: Antibacterial activity against Bacillus anthracis 9131 measured after 24 hrs by broth microdilution method. The format is functional.
Test [20] relates to Streptococcus pneumoniae. Nature of the test: Antibacterial activity against Streptococcus pneumoniae CIP103566 measured after 24 hrs by broth microdilution method. It is filed as functional.
Test [21] has as its system Bacteroides sp. Nature of the test: Antibacterial activity against Bacteroides sp. measured after 24 hrs by broth microdilution method. It is filed as functional.

For `C=CCN1C(=O)/C(=C/c2cc(C)n(-c3cccc(C(=O)O)c3)c2C)SC1=S`, half-maximal inhibition in test [1] (IC50) was put at 1.8 µM.

In the case of `CC(C)(C)c1ccccc1NCc1cc([N+](=O)[O-])ccc1O`, the MIC turned out to be 0.25 µg/mL (≈ 0.832 µM) in test [2], 1 µg/mL (≈ 3.33 µM) in test [3] and 0.25 µg/mL (≈ 0.832 µM) in test [4].

On to `C=C1CCO[C@]2([C@@H](O)[C@@](C)(O)CO)NC(=O)[C@@]1(O)NC2=O` [BICOZAMYCIN], for which the figures for the Ki in test [5] and in test [6] were 2.8 µM and 26 µM, respectively.

In the case of `Nc1ccccc1Sc1ccc(C(=O)c2ccccc2C(=O)O)cc1[N+](=O)[O-]`, the IC50 in test [7] came to 6.4 µM. Further, in test [8], the MIC turned out to be 256 µg/mL (≈ 649 µM). Moreover, the inhibition in test [9] turned out to be 80%.

With `N=C(N)N/N=C/c1ccc(OC/C=C\COc2ccc(/C=N/NC(=N)N)cc2)cc1`, the inhibition at 200 µM in [10] and in test [11] was 100% in each case.

On to `COc1cccc(/C=C/c2cc(O)ccc2[N+](=O)[O-])c1`, for which the values for the MIC in test [2], in test [3] and in [4] were 0.25 µg/mL (≈ 0.922 µM), 2 µg/mL (≈ 7.37 µM) and 0.25 µg/mL (≈ 0.922 µM), respectively.

As to `O=[N+]([O-])c1ccc(O)c(/C=N/c2cccc(Cl)c2)c1`, the MIC in test [2] was found to be 0.25 µg/mL (≈ 0.904 µM); in test [3] it was 2 µg/mL (≈ 7.23 µM); in [4], 0.25 µg/mL (≈ 0.904 µM).

As to `CN1C(=O)/C(=C\c2ccc(-c3cccc(C(=O)O)c3)o2)SC1=S`, the midpoint of inhibition in [1], the IC50, lay at 3 µM.

With `O=C1N(Cc2ccccc2)CCC1(CCN1CCC(Nc2nc3ccccc3n2Cc2ccc(F)cc2)CC1)Cc1ccccc1` (centres undefined), the MIC in test [12] and in [13] was 2.5 µM (≈ 1.54 µg/mL) each time. The IC50 in [14] stood at 25 µM.

In [15], `COc1ccc(-c2cc(-c3ccc(OC)c(OC)c3)nc(NS(=O)(=O)c3ccc(NC(C)=O)cc3)n2)c(OC)c1` displayed an IC50 of 6.1 µM.

With `C[C@]12CC[C@@H](O)CC1CCC1C2CC[C@](C)(C(=O)O)C1/C=C1/Nc2ccccc2C1=O` (some centres undefined), the figures for the MIC in [16] and in test [17] were approximately 100 µM (≈ 42.4 µg/mL) and not above 50 µM, respectively. The inhibition in [9] is 80%.

For `O=[N+]([O-])c1ccc(O)c(CNc2ccccc2C#Cc2ccccc2)c1`, the MIC in [2], in test [3] and in [4] was 0.25 µg/mL (≈ 0.726 µM) throughout.

As for `C#Cc1cccc(/N=C/c2cc([N+](=O)[O-])ccc2O)c1`, the Kd in test [18] is approximately 1.5 µM. Besides, in [3], the MIC came out at 8 µg/mL (≈ 30 µM). Further, in [15], the IC50 was approximately 35 µM.

Take `C#Cc1cccc(NCc2cc([N+](=O)[O-])cc(Br)c2O)c1`: the MIC in test [2] and in test [4] was 0.25 µg/mL (≈ 0.72 µM) throughout.

For the compound `CCNC(=O)Nc1ccc(OCCCCOc2ccc(NC(=O)NCC)cc2)cc1`, in test [15], 19.8 µM corresponded to half-maximal inhibition (IC50). That is a double-digit micromolar value.

With `C=CCN1C(=O)/C(=C\c2ccc(-c3cccc(C(=O)O)c3)o2)SC1=S`, the figures for the MIC in [19], in test [20] and in test [21] were 0.1 µg/mL (≈ 0.269 µM), 2 µg/mL (≈ 5.38 µM) and 1 µg/mL (≈ 2.69 µM), respectively. The same compound returned an IC50 in test [1] of 2 µM.

With `O=C(O)c1ccccc1C(=O)c1ccc(Sc2ccc(Cl)c(Cl)c2)c([N+](=O)[O-])c1`, in test [8], the MIC amounted to 8 µg/mL (≈ 17.8 µM).
